Experimental data as given in patent EP4541363A1, “USE OF THE (+)-ELATOL COMPOUND FOR TREATING OR PREVENTING A NAEGLERIA FOWLERI INFECTION” (Universidad de la Laguna, priority 2022, dated 2023).
≈ marks a conversion by molar mass, not a printed value. Where two headings read alike, the source gives them in different places.

Assays:
[1] = Cytotoxicity assay based on alamarBlue reagent; type: cell-based; conditions: mouse, cytotoxic concentration 50 against murine macrophages J774A.1, 24 hours at 37°C, 5% CO2, mean ± standard deviation
Experimental: (§1) The cells were cultured in DMEM (Dulbecco's Modified Eagle's Medium) supplemented with 10% fetal bovine serum and 10 µg/ml gentamicin (Sigma-Aldrich, Madrid, Spain). The culture was maintained at 37°C in a 5% CO2 atmosphere. To assess cytotoxicity, an assay based on the alamarBlue® reagent was carried out. Briefly, the murine macrophages (2 × 10^5 cells/ml) were incubated with serial dilutions of the test compound that were performed in the same culture medium. Lastly, alamarBlue® was added to each well and kept at 37°C and 5% CO2 for 24 hours.

[2] = test system: Naegleria fowleri ATCC® 30808™; test: In vitro activity against Naegleria fowleri, alamarBlue colorimetric assay, strain ATCC 30808; type: cell-based; conditions: for IC50 / ATCC® 30808™ IC50: strain ATCC® 30808™, 48 hours at 37°C, mean ± standard deviation; for ATCC® 30808™ SI: selectivity index, CC50 in J774A.1 versus IC50 in strain ATCC® 30808™
Experimental: (§2) Two strains of Naegleria fowleri obtained from the American Type Culture Collection (ATCC® 30808™ and ATCC® 30215™) were used (LG Promochem, Barcelona, Spain). Both strains were grown in 2% (w/v) Bacto Casitone (Thermo Fisher Scientific, Madrid, Spain) supplemented with 10% (v/v) fetal bovine serum, 0.3 µg/ml penicillin G sodium salt and 0.5 mg/ml streptomycin sulphate (Sigma-Aldrich, Madrid, Spain) at 37°C.
(§3) All tested compounds were dissolved in dimethyl sulfoxide (DMSO). The in vitro activity of the selected compounds was assessed by a colorimetric assay based on the alamarBlue® reagent. Amoebas were seeded in 96-well plates at a concentration of 2 × 10^5 cells/ml ([…]). Next, serial dilutions (in the same medium as the amoebas) of the compound were prepared and added ([…]) to the wells containing the Naegleria fowleri cells. Lastly, 10% of the total volume of alamarBlue® was added to the wells and incubated under gentle stirring at 37°C for 48 hours. After that time, the emitted fluorescence was read on an EnSpire® Multimode Plate Reader (PerkinElmer, Spain) using a […] (Rizo-Liendo A. et al. "In Vitro Activity of Statins against Naegleria fowleri."; Pathog, vol. 8, no. 3, p. 122 - 2019; doi: 10.3390/ pathogens8030122).

[3] = test system: Naegleria fowleri ATCC® 30215™; test: In vitro activity against Naegleria fowleri, alamarBlue colorimetric assay, strain ATCC 30215; type: cell-based; conditions: for IC50: Naegleria fowleri, ATCC30215; for IC50 / ATCC® 30215™ IC50: Table 2, strain ATCC® 30215™, 48 hours at 37°C, mean ± standard deviation; for ATCC® 30215™ SI: selectivity index, CC50 in J774A.1 versus IC50 in strain ATCC® 30215™
Experimental: as §2, §3

[4] = test system: murine macrophages J774A.1; test: Cytotoxicity assay based on alamarBlue reagent; type: cell-based; conditions: cytotoxic concentration 50 against murine macrophages J774A.1; 24 hours at 37°C, 5% CO2; mean ± standard deviation
Experimental: as §1

Naegleria fowleri = conditions: infected PAM patients; alone or in combination with other medicines; cited from earlier work
[5] = Naegleria fowleri, ATCC30808, Table 2, read-out: ATCC® 30808™ IC50

Molecule | ATCC® 30808™ SI [2] | ATCC® 30215™ SI [3] | IC50 ([2]; Table 1) [µg/mL] | further results
C=C1CC(O)C(Br)C(C)(C)C12CCC(C)=C(Cl)C2 (single isomer, unassigned; (+)) [(+)-elatol] | 57.02 | 54.03 | – | CC50 at 24 h ([1]; j774a.1 macrophages): 20.5 ± 4.33 µg/mL (≈ 61.5 µM); IC50 ([2]; Naegleria fowleri, ATCC30808, Table 1, read-out: IC50): 0.36 ± 0.03 µg/mL (≈ 1.08 µM); IC50 [2, 5]: 0.36 ± 0.03 µg/mL (≈ 1.08 µM); IC50 [3]: 0.38 ± 0.06 µg/mL (≈ 1.14 µM)
C=C1CC(O)C(Br)C(C)(C)C12CC=C(C)CC2 (single isomer, unassigned; (-)) [(-)-10-bromochamigra-3,7(14)-dien-9-ol] | – | – | > 25 | –
C=C1C[C@H](O)[C@H](Br)C(C)(C)C12CCC(C)(Cl)C(Br)C2 (single isomer, unassigned; (-)) [(-)-rogiolol] | 5.57 | – | 8.18 ± 0.92 (≈ 19.7 µM) | CC50 [4]: 45.56 ± 7.80 µg/mL (≈ 110 µM); ATCC® 30808™ IC50 ([2]; Table 2): 8.18 ± 0.92 µg/mL
C=C1C[C@H](O)CC(C)(C)[C@@]12CCC(C)=C(Cl)C2 [(+)-debromoelatol] | – | – | > 25 | –
C=C1CC[C@@H](Br)C(C)(C)[C@@]12CC[C@@](C)(Br)[C@H](Cl)C2 [(+)-obtusane] | – | – | > 25 | –
C=C1C[C@@H](O)[C@@H](Br)C(C)(C)[C@]12CC[C@](C)(Br)[C@@H](Cl)C2 [(+)-obtusol] | – | – | > 25 | –
C=C1C[C@@H](O)[C@@H](Br)C(C)(C)[C@]12CC[C@](C)(Cl)[C@@H](Br)C2 [(-)-cartilagineol] | – | – | > 25 | –
C=C1C[C@@H](O)[C@@H](Br)C(C)(C)[C@]12CC[C@@](C)(O)[C@@H](Cl)C2 [(-)-dendroidiol] | – | – | > 25 | –
C=C1C[C@H](O)[C@H](Br)C(C)(C)[C@@]12CCC(C)=C(Cl)C2 [(-)-elatol] | 4.39 | – | 12.27 ± 2.68 (≈ 36.8 µM) | CC50 [4]: 53.91 ± 4.28 µg/mL (≈ 162 µM); ATCC® 30808™ IC50 ([2]; Table 2): 12.27 ± 2.68 µg/mL
C[C@@H]1[C@H](O)[C@@H](C)/C=C/C=C/C=C/C=C/C=C/C=C/C=C/[C@H](O[C@@H]2O[C@H](C)[C@@H](O)[C@H](N)[C@@H]2O)C[C@@H]2O[C@](O)(C[C@@H](O)C[C@@H](O)[C@H](O)CC[C@@H](O)C[C@@H](O)CC(=O)O[C@H]1C)C[C@H](O)[C@H]2C(=O)O [Amphotericin B] | > 1818.18 | > 1333.33 | – | CC50 at 24 h ([1]; j774a.1 macrophages): > 200 µg/mL; IC50 [2, 5]: 0.11 ± 0.03 µg/mL (≈ 0.119 µM); patients recover at least partially after its administration (Naegleria fowleri): 8%; IC50 [3]: 0.15 ± 0.02 µg/mL (≈ 0.162 µM)
CCCCCCCCCCCCCCCCOP(=O)([O-])OCC[N+](C)(C)C [Miltefosine] | 3.30 | 1.56 | – | CC50 at 24 h [1]: 52.1 ± 3.61 µg/mL (≈ 128 µM); IC50 [2, 5]: 15.8 ± 1.72 µg/mL (≈ 38.7 µM); IC50 [3]: 33.2 ± 2.95 µg/mL (≈ 81.6 µM)
(-)-3,10-dibromo-4-chloro-alpha-chamigrene | – | – | > 25 | –
debromolauriterol | 2.74 | 1.07 | – | CC50 [4]: 15.17 ± 2.80 µg/mL; ATCC® 30808™ IC50 ([2]; Table 2): 5.54 ± 1.19 µg/mL; ATCC® 30215™ IC50 [3]: 14.13 ± 2.37 µg/mL
lauriterol | 5.97 | 6.85 | – | CC50 [4]: 23.65 ± 2.30 µg/mL; ATCC® 30808™ IC50 ([2]; Table 2): 3.96 ± 0.76 µg/mL; ATCC® 30215™ IC50 [3]: 3.45 ± 0.63 µg/mL
